Laboratory results as given in publication PMC12041370, “AARS2-catalyzed lactylation induces follicle development and premature ovarian insufficiency” (Cell Death Discovery, 2025).
Numbering of substitutions follows the chain as printed.

Tests used:
AARS2 [1] = target: T1, AARS2 (Homo sapiens, UniProt Q5JTZ9); assay: isothermal titration calorimetry (Microcal); format: binding; conditions: read-out: K
T1 construct: full-length human AARS2 985 aa
T1 sequence (Q5JTZ9 11-985): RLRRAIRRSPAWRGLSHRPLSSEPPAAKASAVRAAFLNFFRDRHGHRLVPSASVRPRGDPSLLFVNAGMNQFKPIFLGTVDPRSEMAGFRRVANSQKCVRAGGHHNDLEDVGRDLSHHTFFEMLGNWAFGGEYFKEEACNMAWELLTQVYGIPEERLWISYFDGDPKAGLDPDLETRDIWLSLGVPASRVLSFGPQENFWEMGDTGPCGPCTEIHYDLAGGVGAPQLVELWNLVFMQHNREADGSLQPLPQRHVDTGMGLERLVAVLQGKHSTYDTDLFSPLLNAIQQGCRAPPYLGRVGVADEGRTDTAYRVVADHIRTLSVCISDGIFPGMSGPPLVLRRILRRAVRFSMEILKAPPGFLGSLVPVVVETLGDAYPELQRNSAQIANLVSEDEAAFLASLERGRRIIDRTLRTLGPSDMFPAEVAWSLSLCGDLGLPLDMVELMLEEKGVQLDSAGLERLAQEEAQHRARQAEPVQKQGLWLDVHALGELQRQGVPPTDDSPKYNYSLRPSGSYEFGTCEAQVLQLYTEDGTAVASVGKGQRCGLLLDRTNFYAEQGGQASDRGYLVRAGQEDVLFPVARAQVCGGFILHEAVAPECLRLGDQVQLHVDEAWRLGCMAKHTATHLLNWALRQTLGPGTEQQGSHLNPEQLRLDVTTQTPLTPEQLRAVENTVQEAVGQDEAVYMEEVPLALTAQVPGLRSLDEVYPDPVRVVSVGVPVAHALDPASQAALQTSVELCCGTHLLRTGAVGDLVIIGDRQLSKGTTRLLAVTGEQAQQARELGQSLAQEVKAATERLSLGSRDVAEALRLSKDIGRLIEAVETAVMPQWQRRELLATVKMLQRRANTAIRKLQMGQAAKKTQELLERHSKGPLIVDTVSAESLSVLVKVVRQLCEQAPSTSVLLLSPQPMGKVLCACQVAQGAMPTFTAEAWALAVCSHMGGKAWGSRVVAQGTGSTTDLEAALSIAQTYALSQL
From the text: isothermal titration calorimetry (Microcal) on AARS2 | The parameters of lactate binding to AARS2 were as follows

AARS2 [2] = target: T2, AARS2 (Homo sapiens, UniProt Q5JTZ9, R199C); assay: isothermal titration calorimetry (Microcal); format: binding; conditions: read-out: K
T2 construct: full-length human AARS2 985 aa
T2 sequence (Q5JTZ9 11-985 R199C): T1 sequence (Q5JTZ9 11-985) with R189C
From the text: isothermal titration calorimetry (Microcal) on AARS2 | For lactate binding to the R199C mutant, the parameters were as follows

AARS2 [3] = target: T1, AARS2; assay: in vitro lactylation of PDHA1 and CPT2, Western blot; format: biochemical; conditions: β-alanine in reaction mix, concentration not told

Compound	Kd (AARS2 [1]) [µM]	Kd (AARS2 [2]) [µM]	inhibition (AARS2 [3])
C[C@H](O)C(=O)O [lactate]	8.23 to 17.9	2.6 to 3.7	–
NCCC(=O)O [β-alanine]	–	–	β-alanine inactivated lactyltransferase activities of both AARS2 and R199C
